{"source": "patent US8697081B2", "about": "“Method of modulating neovascularization” (The Regents of the University of Michigan, priority 2008, dated 2014)", "key": {"human endothelial cells": {"test_system": "human endothelial cells", "assay": "Fn matrix assembly by endothelial cells in 3-D fibrin gel, confocal laser microscopy", "format": "cell-based", "description": "Endothelial cells were isolated from human umbilical cord veins by collagenase digestion and cultured in Medium 199 (Gibco) containing 20% human serum, 50 μg/ml endothelial cell growth supplement (BD Biosciences), 100 U/ml penicillin, and 100 μg/ml streptomycin (Hiraoka et al. 1998. Cell, 95(3): 365-377). For 2-D/3-D culture, endothelial cell monolayers (no later than third passage) were suspended by mild trypsinization and dispersed within or plated atop fibrin (3 mg/ml) or collagen (2.2 mg/ml) gels (prepared as described in Hiraoka, supra, and Hotary et al. 2003. Cell, 114(1): 33-45), and stimulated with a cocktail of growth factors including 100 ng/ml human vascular endothelial growth factor (Genentech), 50 ng/ml human hepatocyte growth factor (Genentech), 10 ng/ml human TGFα (Biosource), 0.5 ng/ml TGFβ1 (R and D Systems), and 100 μg/ml heparin (Sigma). In selected experiments, endothelial cell spheroids were prepared and suspended in 3-D fibrin gels.\nThe effect of Fn matrix assembly, or lack thereof, on endothelial cell function during neovascularization was assessed. Human serum was depleted of Fn by gelatin-sepharose affinity chromatography (Amersham) and supplemented with either 20 μg/ml of human plasma Fn (Sigma) or FITC-labeled Fn. […]\n(Chernousov et al. 1991. J. Biol. Chem., 266(17): 10851-10858; Tomasini-Johansson et al. 2001. J. Biol. Chem., 276(26): 23430-23439; Mao and Schwarzbauer. 2005. Matrix Biol., 24(6): 389-399; and Tomasini-Johansson et al. 2006. Matrix Biol., 25(5): 282-293). […] Cell number in 3-D cultures was determined by hemacytometry after dissolving gels with 2 mg/ml bacterial collagenase (Worthington) while the number of patent tubules was determined in randomly selected cross-sections. Fn matrix assembly and cell morphology were monitored by confocal laser microscopy. To examine cell migration, endothelial cells were embedded in a 100 μl fibrin gel for 2 hours, then placed within a 500 μl gel for 8 days in the presence of Del29, FUD, control IgG, or L8, after which migration from the inner gel was assessed. […]"}, "[1]": {"test_system": "Human umbilical vein endothelial cells", "assay": "RNA synthesis (transcriptional activity) in cultured endothelial cells", "format": "cell-based", "conditions": "for transcriptional activity: 2-D culture conditions; for VEGF/HGF induction of transcriptional activity (RNA synthesis) / mRNA and rRNA synthesis inhibited: 3-D culture; for mRNA and rRNA synthesis inhibited: low dose actinomysin D used to separate rRNA synthesis, data not shown", "from_the_text": "At sites of tissue damage, inflammation or neoplasia, fibrinogen is converted into a 3-D meshwork of fibrin fibrils that serve as a structural support for endothelial cells undergoing neovascularization (Chun et al. 2006. Cell, 125: 577-591; Hiraoka et al. 1998. Cell, 95: 365-377; Schafer and Werner. 2008. Nat. Rev. Mol. Cell Biol., 9: 628-638; Zhou et al. 2008. Genes Dev., 22: 1231-1243). This process can be recapitulated in vitro by embedding serum-supplemented human endothelial cells within a 3-D fibrin gel in the presence of the pro-angiogenic factors, VEGF and HGF. Human umbilical vein endothelial cells were isolated from umbilical cords by perfusion of the umbilical vein with type 3 collagenase (Worthington, Lakewood, N.J.) and cultured in Medium-199 (Invitrogen, Carlsbad, Calif.) with 20% human serum and 50 μg/ml endothelial cell growth supplement (ECGS; BD Biosciences, Franklin Lakes, N.J.). For 3-D culture, endothelial cells were suspended in a solution of thrombin and aprotinin (Sigma, St. Louis, Mo.) and mixed 1:1 with a solution of 6 mg/ml fibrinogen (Calbiochem, Gibbstown, N.J.). Vasculogenesis was triggered by treatment with 100 ng/ml VEGF, 50 ng/ml HGF (Genentech, San Francisco, Calif.). Fibronectin fibrillogenesis was tracked in 3-D by co-culture with human fibronectin (Sigma) labeled with Alexa-594 (Invitrogen).\nVEGF/HGF-induced chromatin dispersion, histone acetylation, and nuclear speckle decompaction observed in 3-D culture are consistent with global activation of transcription (Lamond and Spector, 2003. Nat. Rev. Mil. Cell Biol., 4: 605-612; Tang et al., supra). As such, RNA synthesis was quantified in cultured endothelial cells. […] Under 2-D culture conditions, transcriptional activity proceeded independently of pericellular ECM remodeling and was unaffected by FUD or GM6001."}}}
{"compound": "Cc1ccc2c(c1)C(=O)C1(O)CCN(c3ccccc3)C1=N2", "note": "(centres unmarked) [blebbistatin]", "values": [{"measurement": "pericellular Fn matrix assembly", "setting": "human endothelial cells; 2 days, 50 μM blebbistatin", "value": "failed to assemble"}]}
{"compound": "CNC(=O)[C@H](Cc1c[nH]c2ccccc12)NC(=O)[C@@H](CC(=O)NO)CC(C)C", "note": "[GM6001]", "values": [{"measurement": "transcriptional activity", "setting": "[1]", "value": "unaffected"}, {"measurement": "VEGF/HGF induction of transcriptional activity (RNA synthesis)", "setting": "[1]", "value": "attenuated significantly"}, {"measurement": "mRNA and rRNA synthesis inhibited", "setting": "[1]", "value": "~50", "unit": "%"}]}
{"compound": "FUD: 49-residue functional upstream domain of Streptococcus pyogenes F1 adhesion protein, SEQ ID NO: 10; fibronectin fibril assembly inhibitor (KDQSPLAGESGETEYITEVYGNQQNPVDIDKKLPNETGFSGNMVETEDT; Streptococcus pyogenes; Functional Upstream Domain (FUD) of F1 adhesion protein)", "values": [{"measurement": "Fn matrix assembly (Fn polymerization)", "setting": "human endothelial cells; growth factor cocktail, FUD or Del29 250 nM, L8 or 9D2 100 μg/ml, 70 kDa Fn fragment 75 μg/ml", "value": "attenuated"}, {"measurement": "transcriptional activity", "setting": "[1]", "value": "unaffected"}, {"measurement": "VEGF/HGF induction of transcriptional activity (RNA synthesis)", "setting": "[1]", "value": "attenuated significantly"}, {"measurement": "mRNA and rRNA synthesis inhibited", "setting": "[1]", "value": "~50", "unit": "%"}]}
